Laboratory results reported in patent US20030118673A1, “Smilagenin and anzurogenin-D for the treatment of alzheimer's disease” (priority 1998, published 2003).

Columns and labels:
[1] = test system: muscarinic receptors on cardiac muscle cells; test: Muscarinic receptor expression on cultured neonatal cardiac muscle cells (tritiated QNB binding); type: cell-based, Sprague Dawley rats
Text: 3. Cultured cardiac muscle cells obtained from neonatal Sprague Dawley rats. The cardiac muscle cells express muscarinic receptors, typically m2. The level of these receptors falls on prolonged culture and the effects of compounds of interest in preventing the fall in receptor numbers was investigated.
3 Effects of compounds on cultured cardiac muscle cells. Cardiac muscle cells were isolated from the ventricular muscle of neonatal Sprague Dawley rats using standard techniques. Cells were cultured in vitro and muscarinic receptor numbers expressed on cell surfaces membrane fragments after homogenization of cells harvested at various time points were estimated using specific binding of tritiated QNB. […] The experiments were therefore designed to investigate the effects of the various compounds in inhibiting this decline in receptor numbers.

[2] = test system: m2 receptors on CHO cells; test: Expression of m2 receptors on transfected CHO cells (tritiated QNB binding); type: cell-based, Chinese hamster; settings: for Antagonism by tamoxifen of the increase in muscarinic receptor number: in the presence of tamoxifen; for Effect on receptor expression, given as % increase compared to control (negative values in brackets): DMSO control
m2 receptors on CHO cells, sequence (P08172 whole entry, the tested form may be a part): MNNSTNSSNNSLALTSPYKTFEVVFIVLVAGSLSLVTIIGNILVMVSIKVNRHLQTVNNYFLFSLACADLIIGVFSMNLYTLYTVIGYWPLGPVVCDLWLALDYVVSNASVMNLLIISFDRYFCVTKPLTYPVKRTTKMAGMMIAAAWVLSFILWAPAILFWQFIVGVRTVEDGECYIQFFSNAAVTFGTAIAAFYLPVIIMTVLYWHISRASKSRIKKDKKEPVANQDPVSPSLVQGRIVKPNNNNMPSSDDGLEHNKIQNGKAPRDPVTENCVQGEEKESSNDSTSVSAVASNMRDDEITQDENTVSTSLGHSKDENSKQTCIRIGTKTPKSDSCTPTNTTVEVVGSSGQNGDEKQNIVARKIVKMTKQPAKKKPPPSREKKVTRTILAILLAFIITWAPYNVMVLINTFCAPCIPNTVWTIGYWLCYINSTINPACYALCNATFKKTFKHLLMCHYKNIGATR
Description: 1. Chinese hamster ovary (CHO) cells transfected with the a DNA fragment coding for a muscarinic receptor. The cell line used for the majority of the experiments was a cell line expressing the m2 receptor.
1 CHO cell line experiments The effects of various compounds on the expression of m2 receptors on CHO cells transfected with DNA for the m2 receptor were investigated. Receptor. numbers were assayed using tritiated QNB binding and subtracting non-specific binding. Compounds were dissolved in DMSO and DMSO was used as a control. Compounds were tested at a range of final concentrations. Compounds were also tested in the presence and absence of tamoxifen to try to distinguish an estrogen receptor mediated mechanism. The results are summarized in the Table 2 below, where the compounds used in the invention appear in bold, and data on other sapogenins is given for comparative purposes: […]

estrogen receptor = test: Estrogenic activity
Text: (§1) In identifying compounds that would have use in the treatment of SDAT and other diseases characterised by reductions in receptor numbers or synaptic transmission, the inventors have given consideration to the need to identify compounds that would have the desired effect but would be devoid of any estrogenic effects, as these would be unacceptable, particularly in male patients. A number of the compounds claimed to have activity in patent application DE 4303214A1 have marked estrogenic activity and are therefore unacceptable.

Progesterone receptor = biological target: T1, Progesterone receptor (Homo sapiens, UniProt P06401); test: Activity at progesterone receptor
T1 sequence (P06401 1-933): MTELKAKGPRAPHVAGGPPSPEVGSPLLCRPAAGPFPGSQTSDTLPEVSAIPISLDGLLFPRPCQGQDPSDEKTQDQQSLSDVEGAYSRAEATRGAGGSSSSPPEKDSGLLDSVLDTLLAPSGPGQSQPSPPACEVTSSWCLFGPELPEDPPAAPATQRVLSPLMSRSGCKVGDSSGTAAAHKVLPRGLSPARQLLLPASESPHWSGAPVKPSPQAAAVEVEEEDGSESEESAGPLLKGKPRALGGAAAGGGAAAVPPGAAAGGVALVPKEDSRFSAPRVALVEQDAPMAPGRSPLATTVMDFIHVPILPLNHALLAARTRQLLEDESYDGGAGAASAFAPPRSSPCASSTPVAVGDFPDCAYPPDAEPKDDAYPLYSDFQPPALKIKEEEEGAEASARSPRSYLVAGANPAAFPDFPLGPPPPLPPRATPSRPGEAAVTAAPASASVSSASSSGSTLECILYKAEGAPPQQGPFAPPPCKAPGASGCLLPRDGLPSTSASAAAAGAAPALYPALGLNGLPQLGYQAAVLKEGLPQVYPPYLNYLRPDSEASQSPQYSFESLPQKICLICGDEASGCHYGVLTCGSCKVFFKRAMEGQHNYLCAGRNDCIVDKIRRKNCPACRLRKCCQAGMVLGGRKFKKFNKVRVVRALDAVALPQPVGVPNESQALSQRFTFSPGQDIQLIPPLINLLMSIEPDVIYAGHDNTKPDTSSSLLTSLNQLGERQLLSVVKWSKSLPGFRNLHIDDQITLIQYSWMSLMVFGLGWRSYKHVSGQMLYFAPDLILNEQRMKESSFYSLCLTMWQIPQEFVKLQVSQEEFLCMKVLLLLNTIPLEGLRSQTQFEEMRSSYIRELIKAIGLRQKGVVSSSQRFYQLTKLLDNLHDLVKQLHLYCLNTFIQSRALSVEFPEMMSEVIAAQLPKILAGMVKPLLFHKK
Text: as §1

Glucocorticoid receptor = biological target: T2, Glucocorticoid receptor (Homo sapiens, UniProt P04150); test: Activity at glucocorticoid receptor
T2 sequence (P04150 1-777): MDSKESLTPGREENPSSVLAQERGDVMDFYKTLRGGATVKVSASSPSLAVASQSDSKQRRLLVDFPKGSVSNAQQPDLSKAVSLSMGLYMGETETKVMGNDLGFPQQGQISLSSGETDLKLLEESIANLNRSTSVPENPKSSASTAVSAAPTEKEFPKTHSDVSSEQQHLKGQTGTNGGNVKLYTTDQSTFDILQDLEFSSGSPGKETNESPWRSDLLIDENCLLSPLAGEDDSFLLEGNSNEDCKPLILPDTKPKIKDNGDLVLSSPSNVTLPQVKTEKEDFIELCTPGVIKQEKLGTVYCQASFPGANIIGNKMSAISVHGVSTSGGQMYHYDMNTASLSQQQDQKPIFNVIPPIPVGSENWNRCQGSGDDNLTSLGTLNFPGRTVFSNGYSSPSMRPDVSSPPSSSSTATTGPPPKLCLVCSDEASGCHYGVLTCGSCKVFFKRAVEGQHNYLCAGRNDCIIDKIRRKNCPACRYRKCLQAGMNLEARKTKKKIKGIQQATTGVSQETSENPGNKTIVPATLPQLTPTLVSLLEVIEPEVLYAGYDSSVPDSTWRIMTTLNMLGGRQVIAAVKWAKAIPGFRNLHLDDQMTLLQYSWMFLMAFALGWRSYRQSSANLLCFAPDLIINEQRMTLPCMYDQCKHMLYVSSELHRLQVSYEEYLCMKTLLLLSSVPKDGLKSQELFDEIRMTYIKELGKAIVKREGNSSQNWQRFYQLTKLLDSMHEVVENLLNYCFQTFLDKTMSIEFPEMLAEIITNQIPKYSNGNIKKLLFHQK
Text: as §1

Testosterone receptor = biological target: T3, Testosterone receptor (Homo sapiens, UniProt P10275); test: Activity at testosterone receptor
T3 sequence (P10275 1-920): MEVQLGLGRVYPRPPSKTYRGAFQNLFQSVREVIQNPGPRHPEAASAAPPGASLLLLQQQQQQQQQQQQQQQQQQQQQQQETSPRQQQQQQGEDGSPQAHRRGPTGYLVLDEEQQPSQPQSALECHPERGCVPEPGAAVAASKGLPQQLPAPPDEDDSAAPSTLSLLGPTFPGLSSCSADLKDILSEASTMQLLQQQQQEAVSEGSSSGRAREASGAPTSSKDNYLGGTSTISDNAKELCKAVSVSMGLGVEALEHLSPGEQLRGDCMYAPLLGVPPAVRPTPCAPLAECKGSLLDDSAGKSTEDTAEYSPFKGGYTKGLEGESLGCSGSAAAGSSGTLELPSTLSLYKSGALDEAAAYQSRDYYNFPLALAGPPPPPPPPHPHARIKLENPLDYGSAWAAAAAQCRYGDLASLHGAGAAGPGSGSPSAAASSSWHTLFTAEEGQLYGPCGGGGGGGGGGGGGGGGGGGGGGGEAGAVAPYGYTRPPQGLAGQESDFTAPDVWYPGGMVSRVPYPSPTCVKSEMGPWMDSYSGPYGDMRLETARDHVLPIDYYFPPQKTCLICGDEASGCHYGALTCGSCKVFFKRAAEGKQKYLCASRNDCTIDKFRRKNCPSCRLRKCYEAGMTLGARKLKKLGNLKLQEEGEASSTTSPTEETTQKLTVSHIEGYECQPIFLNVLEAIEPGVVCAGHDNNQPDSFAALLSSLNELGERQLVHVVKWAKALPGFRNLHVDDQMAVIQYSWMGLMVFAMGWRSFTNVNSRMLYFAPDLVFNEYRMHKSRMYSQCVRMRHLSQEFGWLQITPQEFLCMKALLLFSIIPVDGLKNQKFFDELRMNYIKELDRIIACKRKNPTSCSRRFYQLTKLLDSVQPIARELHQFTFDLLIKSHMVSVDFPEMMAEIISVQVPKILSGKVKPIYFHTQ
Text: as §1

[3] = molar concentration of compound 10^−5

Row | Compound | Concentration of compound causing a significant increase in number of receptors expressed on neonatal cardiac muscle after 10 days in vitro culture [1] | Antagonism by tamoxifen of the increase in muscarinic receptor number [2] | Effect on receptor expression, given as % increase compared to control (negative values in brackets) [2, 3] | Effect on receptor expression, given as % increase compared to control (negative values in brackets) ([2]; molar concentration of compound 10^−6) | Estrogenic activity (estrogen receptor) | Activity at progesterone receptor (Progesterone receptor) | Activity at glucocorticoid receptor (Glucocorticoid receptor) | Activity at testosterone receptor (Testosterone receptor)
1 | Astragaloside [reference compound] | 10^−5 M |  |  |  |  |  |  | 
2 | Smilagenin | 10^−6 M | not antagonized by tamoxifen | 57% | 18% | do not display estrogenic activity | neither compound was found to have any activity | neither compound was found to have any activity | neither compound was found to have any activity
3 | C[C@@H]1CC[C@@]2(OC1)O[C@H]1C[C@H]3[C@@H]4C[C@@H](O)[C@@]5(O)C[C@@H](O)CC[C@]5(C)[C@H]4CC[C@]3(C)[C@H]1[C@@H]2C [Anzurogenin D, Anzurogenin-D] | 10^−6 M | not antagonized by tamoxifen | 22% |  | do not display estrogenic activity | neither compound was found to have any activity | neither compound was found to have any activity | neither compound was found to have any activity
4 | C[C@H]1CC[C@@]2(OC1)O[C@H]1C[C@H]3[C@@H]4CC[C@@H]5C[C@@H](O)CC[C@]5(C)[C@H]4CC[C@]3(C)[C@H]1[C@@H]2C [Sarsasapogenin, reference compound] | 10^−5 M |  | 34% |  |  |  |  | 
